In data set [1] the test system is 11β-hydroxysteroid dehydrogenase type 1 (11β-HSD1). The experiment in a line: ELISA of protein expression in LO2 cells: 11β-HSD1. It is filed as cell-based, human. Conditions: 16 mM APAP, 600 μM, 48 h. The protocol:
(§1) The expression levels of glutamylcysteine synthetase (GCL), glutathione synthetase (GS), and 11β-hydroxysteroid dehydrogenase type 1 (11β-HSD1) in cells were quantified using commercially available enzyme-linked immunosorbent assay (ELISA) kits (Shanghai Aimeng Youning Biotechnology Co., Ltd., Shanghai, China). Cells in the logarithmic growth phase were seeded into 6-well plates at a density of 3 × 10^4 cells per well, pre-incubated for 24 h, and subsequently exposed to 16 mM APAP with concurrent administration of MONO, DIAM, and MAGN at a final concentration of 600 μM for 48 h. Following three PBS washes, cells were harvested using cell scrapers. Total protein content was determined by the Bradford assay, and samples were normalized to equivalent protein concentrations prior to quantitative analysis of target proteins according to the manufacturer’s protocols.
A general note: ELISA stands for enzyme-linked immunosorbent assay.

The next data set concerns LO2 cells. The experiment in a line: Hepatocyte protection rate in APAP-induced LO2 cells (MTT). It is filed as cell-based, human. Conditions: for liver protection rate: 16 mM APAP; for hepatocyte protection (therapeutic effect): 16 mM APAP, 200, 400 and 600 μM. The protocol:
Assessment of hepatocyte-protective effects: Cells in the logarithmic growth phase were seeded onto a 96-well plate at a density of 4000 cells per well, followed by incubation at 37 °C in an atmosphere containing 5% CO2. After 24 h of incubation, cells were treated with 16 mM APAP, followed by the addition of MONO, DIAM, and MAGN at three escalating concentrations (200, 400, and 600 μM for each compound). The cell survival rate was quantitatively evaluated using MTT method. The protective efficacy of the compounds was then calculated employing the formula outlined below.(1) Hepatocytes protection rate=AGlycyrrhizinate−AAPAP/Anormal−AAPAP×1

Data set [2] is described as follows: Pharmacokinetics after oral gavage in rats (plasma, HPLC). It is filed as in vivo, Sprague Dawley rats. The conditions noted are these: rat. From the text:
Nine male Sprague Dawley rats, each weighing approximately 250 g ± 25 g, were meticulously selected as the experimental subjects (sourced from Beijing SPF Biotechnology Co., Ltd., (Beijing, China) SPF grade, licensed under SCXK (Jing) 2019-0010). The experimental protocol was approved by the Institutional Animal Care and Use Committee of Hebei Medical University and conformed to the Guide for Care and Use of Laboratory Animals (approval NO. 2023040). Prior to and throughout the experimental period, the rats were provided with unrestricted access to standard rodent chow and water. The housing facilities for these animals adhered strictly to the standards outlined by the International Association for the Evaluation and Certification of Laboratory Animal Care, ensuring optimal conditions for the animals’ wellbeing. The experimental feeding environment was maintained at a temperature of 22–24 °C, with a relative humidity of 50 ± 5%, and a 12-h light/dark cycle to mimic natural diurnal rhythms. The rats were randomly allocated into three distinct groups, with an equal distribution of three rats per group. MONO, DIAM, and MAGN were administered orally at a dose of 20 mg/kg. The amount administered was calculated as the contents of glycyrrhizinate or magnesium isoglycyrrhizinate. Each compound was dissolved in 0.5% carboxymethylcellulose sodium (CMC-Na) solution and delivered immediately to rats via gastric gavage. Blood samples of 0.2 mL were obtained at various time points post-administration (0.5, 1, 2, 4, 8, 12, 24, and 48 h) and centrifuged at 1500× g for 10 min at 4 °C, allowing for the separation of plasma, which was collected and stored at −20 °C for subsequent analysis.
Fifty microliters (50 μL) of plasma was obtained and spiked with 10 μL of dipyridamole solution as an internal standard. Subsequently, 100 μL of acetonitrile was added to precipitate the proteins, followed by vortex mixing. The mixture was centrifuged at 6000× g for 10 min at 4 °C. The resulting precipitate was discarded, and the supernatant was evaporated to dryness under a nitrogen stream at 60 °C. The residual precipitate was redissolved in 200 μL of mobile phase, vortexed for 5 min, and sonicated for 30 s. Following this, the solution was centrifuged again at 6000× g for 10 min at 4 °C. Then, 10 μL of the supernatant was injected and the chromatogram was recorded for analysis.
HPLC was employed using the Agilent 1200 series system (Agilent Technologies, Wilmington, DE, USA) with Agilent Chemstation LC B.04.03 Software. The separation was on a Venusil MP C18(2) chromatographic column (150 × 4.6 mm, 5 μm, Agela Technologies, Tianjin, China) based on the United States Pharmacopeia with adjustments performed. Isocratic elution with a mixture of 40 volumes of acetonitrile and 60 volumes of water (containing 0.5% acetic acid) was used. The flow rate and temperature were 1.0 mL/min and 40 °C, respectively. A volume of 10 μL of the sample was injected under 254 nm for analyses and with three repetitions for each test (n = 3). All the pharmacokinetic data were calculated by Drug and Statistics (DAS) 2.0 software (Mathematical Pharmacology Professional Committee of China, Shanghai, China) and presented as mean ± SD. The main parameters such as the area under the curve (AUC), the maximum plasma concentration (Cmax), the time to Cmax (Tmax), and elimination half-life (t1/2) were tabulated.

For data set [3], the system named is glutamylcysteine synthetase (GCL). The data set is described as follows: ELISA of protein expression in LO2 cells: GCL. It is filed as cell-based, human. The conditions noted are these: 16 mM APAP, 600 μM, 48 h. The protocol: as §1
For data set [4], the system named is glutathione synthetase (GS). The experiment in a line: ELISA of protein expression in LO2 cells: GS. The data set is classed as cell-based, human. The conditions noted are these: 16 mM APAP, 600 μM, 48 h. The protocol:
as §1

Read-outs that look alike come from different tables or passages of the source.

As a reminder, the Cmax is the highest concentration seen after dosing. One may read the Tmax as the time at which the peak concentration occurs. For orientation: half-life means how long it takes for the measured level to halve.

For the molecule `CC1(C)[C@@H](O[C@H]2O[C@H](C(=O)O)[C@@H](O)[C@H](O)[C@H]2O[C@@H]2O[C@H](C(=O)O)[C@@H](O)[C@H](O)[C@H]2O)CC[C@]2(C)[C@H]3C(=O)C=C4[C@@H]5C[C@@](C)(C(=O)O)CC[C@]5(C)CC[C@@]4(C)[C@]3(C)CC[C@@H]12` [DIAM, diammonium glycyrrhizinate], in data set [1], the 11β-HSD1 expression entry is “most pronounced upregulation”. Also, the liver protection rate entry in the data set on LO2 cells (400 μM) was “comparable liver protection rates, which were statistically indistinguishable and surpassed that of MONO”. Moreover, in the data set on LO2 cells, the “hepatocyte protection (therapeutic effect)” value is recorded as “concentration-dependent therapeutic effects”. Also, in data set [2] (oral 20 mg/kg, n = 3), the AUC(0-t) turned out to be 358.04 ± 56.36 µg·h/mL, the highest concentration (Cmax) worked out at 18860 ± 2030 ng/mL, the Tmax is 6 ± 0 h and the t1/2 worked out at 11.57 ± 1.29 h.
Regarding `CC1(C)[C@@H](O[C@H]2O[C@H](C(=O)O)[C@@H](O)[C@H](O)[C@H]2O[C@@H]2O[C@H](C(=O)O)[C@@H](O)[C@H](O)[C@H]2O)CC[C@]2(C)[C@H]3C(=O)C=C4[C@H]5C[C@@](C)(C(=O)O)CC[C@]5(C)CC[C@@]4(C)[C@]3(C)CC[C@@H]12` [MAGN, magnesium isoglycyrrhizinate], the “intracellular GCL levels” value in data set [3] is recorded as “significantly elevated”. The liver protection rate entry in the data set on LO2 cells (400 μM) is “comparable liver protection rates, which were statistically indistinguishable and surpassed that of MONO”; in the data set on LO2 cells (600 μM), “superior protective rate compared to DIAM”. The “hepatocyte protection (therapeutic effect)” value with LO2 cells is “concentration-dependent therapeutic effects”. Also, in data set [4], the GS expression entry is given as “remained comparable to DIAM-treated control”. The molecule further gave a half-life in data set [2] (male, Sprague Dawley, po, 20 mg/kg, n = 3) of 23.7 ± 2.44 h. Further, the AUC(0-t) in data set [2] (male, Sprague Dawley, po, 20 mg/kg, n = 3, read-out: AUC0-t) turned out to be 552 ± 120 µg·h/mL. Moreover, the Cmax in data set [2] (male, Sprague Dawley, po, 20 mg/kg, n = 3, read-out: Cmax) was 23200 ± 4180 ng/mL. Also, the Tmax worked out at 9.66 h in data set [2] (male, Sprague Dawley, po, 20 mg/kg, n = 3, read-out: Tmax) and 9.33 ± 2.31 h in data set [2] (oral 20 mg/kg, n = 3).

The values above are taken from publication PMC12029898, “Cellular Metabolomics Reveals Differences in the Scope of Liver Protection Between Ammonium-Based Glycyrrhizinate and Magnesium Isoglycyrrhizinate” (Metabolites, 2025).
